The results in this text go back to patent US20230143612A1 (Arbutus Biopharma Corporation, priority 2020, published 2023).

SMILES strings stand for the structures.

PD-L1 His protein / PD-1 Fc protein, sequence (Q9NZQ7 19-238 limits assumed): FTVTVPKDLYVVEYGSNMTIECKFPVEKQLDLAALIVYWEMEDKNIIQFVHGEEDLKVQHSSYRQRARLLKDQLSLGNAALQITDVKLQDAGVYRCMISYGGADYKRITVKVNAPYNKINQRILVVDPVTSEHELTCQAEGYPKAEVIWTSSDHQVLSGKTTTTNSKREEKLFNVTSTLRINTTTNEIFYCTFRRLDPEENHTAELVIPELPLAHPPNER

This assay addresses PD-L1 His protein / PD-1 Fc protein (Homo sapiens, UniProt Q9NZQ7). The assay is described as follows: HTRF Assay (PD-1/PD-L1 interaction). Type of assay: binding. The settings on record: PD-L1 His 6 nM, PD-1 Fc 6 nM. The procedure, abridged:
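HTRF: PD-L1 His (6 nM final), compound (3-fold dilutions, 20 μM to 0.001 μM final) and PD-1 Fc (6 nM final) preincubated 15 min at room temperature. Anti-human IgG-XL665 and anti-6HIS Tb cryptate (mixed at 6.7 nM and 0.35 nM) then added for 1 h at room temperature before reading.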
A general note: In TR-FRET formats the signal depends on donor and acceptor labels being close together.
Broadly, the IC50 is the concentration that gives 50% inhibition. The compound `COc1nc(-c2cccc(-c3cccc(-c4cc5c(=O)n(C)c(CNCCCF)nn5c4)c3Cl)c2Cl)ccc1CNC[C@@H]1CCC(=O)N1` [Example 437, (S)-6-(2,2′-Dichloro-3′-(6-methoxy-5-((((5-oxopyrrolidin-2-yl)methyl)amino)methyl)pyridin-2-yl)-[1,1′-biphenyl]-3-yl)-2-(((3-fluoropropyl)amino)methyl)-3-methylpyrrolo[2,1-f][1,2,4]triazin-4(3H)-one] showed an IC50 of 52 nM. `COc1nc(-c2cccc(-c3cccc(-c4ccc5nc(C(=O)NCCN)cn5n4)c3Cl)c2Cl)ccc1CNC[C@@H]1CCC(=O)N1` [Example 438, N-(2-Aminoethyl)-6-[2-chloro-3-[2-chloro-3-[6-methoxy-5-[[[(2S)-5-oxopyrrolidin-2-yl]methylamino]methyl]-2-pyridyl]phenyl]phenyl]imidazo[1,2-b]pyridazine-2-carboxamide] registered an IC50 of 14 nM. Compound `COc1nc(-c2cccc(-c3cccc(-c4ccc5nc(C(=O)NC[C@H](C)N)cn5n4)c3Cl)c2Cl)ccc1CNC[C@@H]1CCC(=O)N1` [Example 439, N-[(2S)-2-Aminopropyl]-6-[2-chloro-3-[2-chloro-3-[6-methoxy-5-[[[(2S)-5-oxopyrrolidin-2-yl]methylamino]methyl]-2-pyridyl]phenyl]phenyl]imidazo[1,2-b]pyridazine-2-carboxamide] had a half-maximal inhibitory concentration (IC50) of 20 nM. As for `COc1nc(-c2cccc(-c3cccc(-c4ccc5nc(C(=O)NCCc6c[nH]cn6)cn5n4)c3Cl)c2Cl)ccc1CNC[C@@H]1CCC(=O)N1` [Example 440, 6-[2-Chloro-3-[2-chloro-3-[6-methoxy-5-[[[(2S)-5-oxopyrrolidin-2-yl]methylamino]methyl]-2-pyridyl]phenyl]phenyl]-N-[2-(1H-imidazol-4-yl)ethyl]imidazo[1,2-b]pyridazine-2-carboxamide], the figure is 27 nM; as for `COc1nc(-c2cccc(-c3cccc(-c4ncc5c(n4)CCN(C[C@@H]4CCC(=O)N4)C5)c3Cl)c2Cl)ccc1CNC[C@@H]1CCC(=O)N1` [Example 443, (S)-5-((((6-(2,2′-Dichloro-3′-(6-(((S)-5-oxopyrrolidin-2-yl)methyl)-5,6,7,8-tetrahydropyrido[4,3-d]pyrimidin-2-yl)-[1,1′-biphenyl]-3-yl)-2-methoxypyridin-3-yl)methyl)amino)methyl)pyrrolidin-2-one], 0.1 nM. The same measure for `COc1nc(-c2cccc(-c3cccc(-c4ccc5c(CNC[C@@H]6CCCO6)cn(C)c5n4)c3Cl)c2Cl)ccc1CNC[C@@H]1CCC(=O)N1` [Example 444, (5S)-5-[[[6-[2-Chloro-3-[2-chloro-3-[1-methyl-3-[[[(2S)-tetrahydrofuran-2-yl]methylamino]methyl]pyrrolo[2,3-b]pyridin-6-yl]phenyl]phenyl]-2-methoxy-3-pyridyl]methylamino]methyl]pyrrolidin-2-one]: 920 nM. `COc1nc(-c2cccc(-c3cccc(-c4ccc5c(CNC[C@H](C)OC)cn(C)c5n4)c3Cl)c2Cl)ccc1CNC[C@@H]1CCC(=O)N1` [Example 445, (5S)-5-[[[6-[2-Chloro-3-[2-chloro-3-[3-[[[(2S)-2-methoxypropyl]amino]methyl]-1-methyl-pyrrolo[2,3-b]pyridin-6-yl]phenyl]phenyl]-2-methoxy-3-pyridyl]methylamino]methyl]pyrrolidin-2-one]: the IC50 was 460 nM. For the compound `COc1nc(-c2cccc(-c3cccc(-c4cc5c(=O)n(C)c(CNC6CC7(COC7)C6)nn5c4)c3Cl)c2Cl)ccc1CNC[C@@H]1CCC(=O)N1` [Example 446, 6-[2-Chloro-3-[2-chloro-3-[6-methoxy-5-[[[(2S)-5-oxopyrrolidin-2-yl]methylamino]methyl]-2-pyridyl]phenyl]phenyl]-3-methyl-2-[(2-oxaspiro[3.3]heptan-6-ylamino)methyl] pyrrolo[2,1-f][1,2,4]triazin-4-one], the IC50 amounted to 160 nM. `COc1nc(-c2cccc(-c3cccc(-c4cc5c(=O)n(C)c(CN6CC7(COC7)C6)nn5c4)c3Cl)c2Cl)ccc1CNC[C@@H]1CCC(=O)N1` [Example 447, 6-[2-Chloro-3-[2-chloro-3-[6-methoxy-5-[[[(2S)-5-oxopyrrolidin-2-yl]methylamino]methyl]-2-pyridyl]phenyl]phenyl]-3-methyl-2-(2-oxa-6-azaspiro[3.3]heptan-6-ylmethyl)pyrrolo[2,1-f][1,2,4]triazin-4-one] came in with an IC50 of 5 nM.

As for `COc1nc(-c2cccc(-c3cccc(-c4cc5c(=O)n(C)c(CN6CC7(CCC(=O)N7)C6)nn5c4)c3Cl)c2Cl)ccc1CNC[C@@H]1CCC(=O)N1` [Example 448, 6-[2-Chloro-3-[2-chloro-3-[6-methoxy-5-[[[(2S)-5-oxopyrrolidin-2-yl]methylamino]methyl]-2-pyridyl]phenyl]phenyl]-3-methyl-2-[(6-oxo-2,5-diazaspiro[3.4]octan-2-yl)methyl]pyrrolo [2,1-f][1,2,4]triazin-4-one], half-maximal inhibition (IC50) required 6.8 nM. For the compound `COc1nc(-c2cccc(-c3cccc(-c4cc5c(=O)n(C)c(CNC6CC7(CCC(=O)N7)C6)nn5c4)c3Cl)c2Cl)ccc1CNC[C@@H]1CCC(=O)N1` (stereo partly drawn) [Example 449, 6-[2-Chloro-3-[2-chloro-3-[6-methoxy-5-[[[(2S)-5-oxopyrrolidin-2-yl]methylamino]methyl]-2-pyridyl]phenyl]phenyl]-3-methyl-2-[[(6-oxo-5-azaspiro[3.4]octan-2-yl)amino]methyl] pyrrolo[2,1-f][1,2,4]triazin-4-one], the midpoint of inhibition, the IC50, lay at 450 nM. `COc1nc(-c2cccc(-c3cccc(-c4cc5c(=O)n(C)c(CNCCC6CCC(=O)N6)nn5c4)c3Cl)c2Cl)ccc1CNC[C@@H]1CCC(=O)N1` (stereo partly drawn) [Example 451, 6-[2-Chloro-3-[2-chloro-3-[6-methoxy-5-[[[(2S)-5-oxopyrrolidin-2-yl]methylamino]methyl]-2-pyridyl]phenyl]phenyl]-3-methyl-2-[[2-(5-oxopyrrolidin-2-yl)ethylamino]methyl]pyrrolo [2,1-f][1,2,4]triazin-4-one] yielded an IC50 of 200 nM. As to `COc1nc(-c2cccc(-c3cccc(-c4ccc5c(CNC[C@@H]6CCC(=O)N6)cn(C)c5c4)c3Cl)c2Cl)ccc1CNC[C@@H]1CCC(=O)N1` [Example 452, (5S)-5-[[[6-[2-Chloro-3-[2-chloro-3-[1-methyl-3-[[[(2S)-5-oxopyrrolidin-2-yl]methylamino]methyl]indol-6-yl]phenyl]phenyl]-2-methoxy-3-pyridyl]methylamino]methyl]pyrrolidin-2-one], the IC50 worked out at 68 nM. In turn, `Cn1cc(CNC[C@@H]2CCC(=O)N2)c2ccc(-c3cccc(-c4cccc(-c5ccn6c(=O)c(CNC[C@@H]7CCC(=O)N7)cnc6c5)c4Cl)c3Cl)cc21` [Example 453, 8-[2-Chloro-3-[2-chloro-3-[1-methyl-3-[[[(2S)-5-oxopyrrolidin-2-yl]methylamino]methyl]indol-6-yl]phenyl]phenyl]-3-[[[(2S)-5-oxopyrrolidin-2-yl]methylamino]methyl]pyrido[1,2-a]pyrimidin-4-one] registered an IC50 of 1200 nM. As for `COc1nc(-c2cccc(-c3cccc(-c4cc5c(cn4)CN(CCNC[C@@H]4CCC(=O)N4)C5=O)c3Cl)c2Cl)ccc1CNC[C@@H]1CCC(=O)N1` [Example 454, 6-(2,2′-dichloro-3′-(6-methoxy-5-(((((S)-5-oxopyrrolidin-2-yl)methyl)amino)methyl)pyridin-2-yl)-[1,1′-biphenyl]-3-yl)-2-(2-((((S)-5-oxopyrrolidin-2-yl)methyl)amino)ethyl)-2,3-dihydro-1H-pyrrolo[3,4-c]pyridin-1-one], the figure is 0.1 nM.
